Source: patent US5418232A, “Diazabicycloalkene derivatives” (Daiichi Pharmaceutical Co., Ltd., priority 1992, dated 1995)

Key:
[1] = Acute toxicity; assay type: in vivo; settings: mouse, in vivo, po
[2] = system: male mice; assay: Acute toxicity; assay type: in vivo; settings: oral 2 g/kg
[3] = system: spontaneously hypertensive rats; assay: Antihypertensive activity in spontaneously hypertensive rats (oral, tail-cuff); assay type: in vivo, rat
Method: Male spontaneously hypertensive rats (16 to 20-week-old; body weight: 300-400 g) fed ab lib. were forceably given oral administration of a test compound suspended in 0.5% (w/v) carboxymethyl cellulose aqueous solution. After 1, 2, 4, 6, 8, 24, 30 or 48 hours from the administration, the systolic blood pressure was measured by a tail-cuff method described in Arzneimittel-Forschung, Vol. 18, pp. 1285-1287 (1968)).
The antihypertensive activity of the test compound was obtained as an effective dose for reducing blood pressure by 50 mmHg (ED50mmHg). Further, the time of onset of the maximum activity and the maximum increase in heart rate at a dose for reducing blood pressure by 50 to 60 mmHg were measured.
The statistical difference between a test compound and EMD57283 was analyzed by the Student's t-test.

[4] = system: spontaneously hypertensive rats; assay: Effect on renal blood flow (Doppler probe); assay type: in vivo, rat; settings: for Increase in Renal Blood Flow 1 Hr after Administration: oral, dose which reduced blood pressure by about 50 mmHg; for activity in increasing the renal blood flow vs reference drug (in words): vs EMD57283
Method: Twenty-week-old male spontaneously hypertensive rats (body weight: 350-430 g) were anesthetized with pentobarbital (30 mg/kg, i.p.). An incision was made in the abdomen on the left side, and a Doppler probe for blood flow measurement was fitted to the left renal artery, and the code (wire lead) of the probe was passed under the back skin and taken out from the back of the neck. After 1 week from the operation, the code of the probe was connected to a Doppler blood flow meter to start measurement of the renal blood flow. After the renal blood flow reached to a steady state, a test compound was orally administered, and changes in renal blood flow were observed up to 9 hours. The test compound was used at a dose which reduced blood pressure by about 50 mmHg.

[5] = system: spontaneously hypertensive rats; assay: Blood pressure fall after i.v. compound with or without glibenclamide pretreatment; assay type: in vivo, rat
Method: 2) Twenty-two-week-old male spontaneously hypertensive rats (body weight, 350-420 g) were given an intravenous injection of 30 mg/kg of glibenclamide (Sigma Chemical Company) having an antagonistic activity against potassium channel openers or, as a control, a solvent.

[6] = dose reducing blood pressure by 50 to 60 mmHg

| Compound | LD50 at 336 h [1] [mg/kg] | safety (in words) [2] | antihypertensive activity (in words) [3] | duration of activity (in words) [3] | ED (50 mmHg) ([3]; Rattus norvegicus, systolic blood pressure, read-out: ED50mmHg (effective dose for reducing blood pressure by 50 mmHg)) [mg/kg] | Max. increase of Heat Rate [3, 6] [%] | Time for Onset of Max. Activity [3, 6] [h] | Increase in Renal Blood Flow 1 Hr after Administration [4] [%] | activity in increasing the renal blood flow vs reference drug (in words) [4] | Average Blood Pressure Fall ([5]; 1 Hr., 0.1 mg/kg i.v. + Glibenclamide 30 mg/kg i.v.) [mmHg] | Average Blood Pressure Fall ([5]; 1 Hr., 0.1 mg/kg i.v. + solvent) [mmHg] | Average Blood Pressure Fall ([5]; 2 Hrs., 0.1 mg/kg i.v. + Glibenclamide 30 mg/kg i.v.) [mmHg] | Average Blood Pressure Fall ([5]; 2 Hrs., 0.1 mg/kg i.v. + solvent) [mmHg] | Average Blood Pressure Fall ([5]; 3 Hrs., 0.1 mg/kg i.v. + Glibenclamide 30 mg/kg i.v.) [mmHg] | Average Blood Pressure Fall ([5]; 3 Hrs., 0.1 mg/kg i.v. + solvent) [mmHg] | Average Blood Pressure Fall ([5]; 4 Hrs., 0.1 mg/kg i.v. + Glibenclamide 30 mg/kg i.v.) [mmHg] | Average Blood Pressure Fall ([5]; 4 Hrs., 0.1 mg/kg i.v. + solvent) [mmHg] | potassium channel opening activity (in words) ([5]; conclusion from Table 6, glibenclamide antagonism) |
| --- | --- | --- | --- | --- | --- | --- | --- | --- | --- | --- | --- | --- | --- | --- | --- | --- | --- | --- |
| CN1N=C(O[C@@H]2c3cc(C#N)ccc3OC(C)(C)[C@H]2O)C2CC2C1=O (relative stereo) [Example 2, 3,4-trans-3,4-dihydro-2,2-dimethyl-3-hydroxy-4-(3-methyl-2-oxo-3,4-diazabicyclo[4.1.0]hept-4-en-5-yloxy)-2H-1-benzopyran-6-carbonitrile] | > 2000 | highly safe | – | – | – | – | – | – | – | – | – | – | – | – | – | – | – | – |
| CC1(C)Oc2ccc(C#N)cc2[C@@H](OC2=NN(Cc3ccccc3Cl)C(=O)C3CC23)[C@@H]1O (relative stereo) [Example 33, (3S,4R,1'R*,6'S*)-4-(3-(2-chlorobenzyl)-2-oxo-3,4-diazabicyclo[4.1.0]hept-4-en-5-yloxy)-3,4-dihydro-2,2-dimethyl-3-hydroxy-2H-1-benzopyran-6-carbonitrile] | > 2000 | highly safe | potent antihypertensive activity | long duration of activity | 0.031 | 19.4 ± 3.1 | 6.6 ± 0.5 | 14.5 ± 4.0 | more potent activity in increasing the renal blood flow than the reference drug | – | – | – | – | – | – | – | – | – |
| CC1(C)Oc2ccc(C#N)cc2[C@@H](OC2=NN(Cc3ccccc3)C(=O)C3CC23)[C@@H]1O (relative stereo) [Example 1, 3,4-trans-4-(3-Benzyl-2-oxo-3,4-diazabicyclo[4.1.0]hept-4-en-5-yloxy)-3,4-dihydro-2,2-dimethyl-3-hydroxy-2H-1-benzopyran-6-carbonitrile] | > 2000 | highly safe | – | – | – | – | – | 34.0 ± 6.1 | more potent activity in increasing the renal blood flow than the reference drug | 15.9 ± 3.7 | 41.4 ± 6.1 | 22.0 ± 5.7 | 50.4 ± 4.4 | 28.0 ± 5.3 | 55.9 ± 4.3 | 26.9 ± 5.7 | 55.1 ± 4.7 | possesses potassium channel opening activity |
